Results on 6 compounds are retold here after ChEMBL document CHEMBL1127146, “Synthesis and antitumor activity of a new class of pyrazolo[4,3-e]pyrrolo[1,2-a][1,4]diazepinone analogs of pyrrolo[1,4]benzodiazepines (PBDs)” (Bioorg Med Chem Lett, 1993).

In experiment [1] the test system is L1210. As to the kind of experiment: Antitumor activity was evaluated in vitro on a L1210 tumor cell line; IA means inactive. It is filed as functional, cell-based. Particulars: Mus musculus.
Experiment [2] relates to L1210. As to the kind of experiment: Antitumor activity was evaluated in vitro on a L1210 tumor cell line. In kind it is functional, cell-based. Particulars: Mus musculus.

Each structure is given as a SMILES string. pIC50: −log10 of the molar value. Active and inactive are the calls of the source. The rule behind the calls is not given here.

`Cc1nn(C)c2c1NC[C@@H]1CCCN1C2=O`: the outcome with L1210 [1] was inactive. Still for that read-out and setting: then `CSC1=Nc2c(nn(C)c2C)C(=O)N2CCC[C@@H]12`, with “inactive”.

By pIC50 is commonly meant the IC50 on a negative log10 scale, so that one unit is a factor of ten. Low readings indicate a high IC50, high ones a low IC50. The compound `Cc1c2c(nn1C)C(=O)N1CCC[C@H]1C=N2` had a pIC50 in the experiment with L1210 [2] of 5.05. Still for that read-out and setting: then `Cc1nn(C)c2c1N=C[C@@H]1CCCN1C2=O`, with 4.65. Turning to `CSC1=Nc2c(C)nn(C)c2C(=O)N2CCC[C@@H]12`, the outcome in the experiment with L1210 [1] was inactive. Same read-out and setting: under `Cc1c2c(nn1C)C(=O)N1CCC[C@H]1CN2` stands “inactive”.
